Values of other authors, collected in patent publication US20240277629A1, “USE OF THYROID HORMONE T4 IN A HIGH VERSATILITY TREATMENT IN PATIENTS TAKING PROTON PUMP INHIBITORS” (ALTERGON S.A., priority 2021, published 2024).

Conditions: patients under therapy with PPIs (Centanni et al. 2006)

Increase of daily dose of T4 needed to obtain the desired blood levels of thyroid hormone: 37%
Structure (SMILES): N[C@@H](Cc1cc(I)c(Oc2cc(I)c(O)c(I)c2)c(I)c1)C(=O)O [T4, levothyroxine]
